Measurements as given in patent publication US20230134986A1, “GLUCOSE TRIPTOLIDE CONJUGATES AND USES THEREOF” (The Johns Hopkins University, priority 2020, published 2023).

Tested on: MDA MB231 cells
Experiment: MDA MB231 proliferation under hypoxia ([3H]-thymidine incorporation)
Assay type: cell-based, human
Conditions: MDA MB231, 1% O2, 48 h post treatment

CC(C)[C@]12O[C@H]1[C@@H]1O[C@]13[C@]1(O[C@H]1C[C@H]1C4=C(CC[C@@]13C)C(=O)OC4)[C@@H]2OC(=O)CCCO[C@@H]1OC(CO)[C@@H](O)C(O)C1O (stereo in doubt) [Compound 1]
effect of hypoxia on anti-proliferative effect: enhances the anti-proliferative effect
